# According to US20190099456A1, “COMPOSITION FOR PROMOTING INTERFERON LAMBDA PRODUCTION AND PRODUCTION METHOD THEREFOR” (KIKKOMAN CORPORATION, priority 2016, published 2019):
# Legend:
# BDCA3 DC [1] = assay: Test of promoting interferon λ3 production by BDCA3 DC co-cultured with lactic acid bacteria suspension; type: cell-based, human; details: 10 μM chloroquine, 24 hours
# Protocol: First, an MRS medium containing 10% (w/v) salt was inoculated with strain KK221 so that a concentration became 1×10^7 cells/ml, and therefore a stock solution of lactic acid bacteria was prepared. The stock solution of lactic acid bacteria was statically cultured at 30° C. for 48 to 72 hours, and then subjected to a boiling and pasteurization treatment at 95° C. for 10 minutes, and therefore a pasteurization-treated culture solution was prepared. […]
# Activity of promoting interferon λ production by the prepared lactic acid bacteria suspension was evaluated as follows by using dendritic cells collected and prepared from the peripheral blood of a non-virus infected healthy subject. […]
# The number of cells of each isolated DC was measured, and a cell stock solution was prepared using an IMDM medium (GIBCO) containing 25 mM D-glucose, 25 mM HEPES, and […] so that a concentration became 5×10^4 cells/ml. […]
# Using the recovered culture supernatant, interferon λ3 was measured by a chemiluminescent enzyme immunoassay method according to a method described in a document of Sugiyama, et al. [Sugiyama M, et al. Hepatol Res. 42 (11): 1089-1099, 2012]. […]
# BDCA3 DC [2] = assay: Test of promoting cytokine production by BDCA3 DC (cytometric beads array); type: cell-based, human; details: lactic acid bacteria count/DC count=100
# Protocol: Poly IC or the lactic acid bacteria suspension prepared by using strain KK221 according to Example 1, and BDCA3 DC were prepared and co-cultured so that lactic acid bacteria count/DC count=100, and the measurement of the activity of promoting production of various cytokines was carried out.
# Note that each of TNFα, IL-10, IL-1β, IL-6, and IL-12p70 was measured by using cytometric beadsarray (CBA; Becton, Dickinson and Company).
substance,measurement,setting,value
Poly IC,activity of promoting interferon λ production according to addition of chloroquine,BDCA3 DC [1],deteriorated
same,"production of various cytokines (TNFα, IL-10, IL-1β, IL-6, IL-12p70, interferon α, interferon λ) by BDCA3 DC",BDCA3 DC [2],"nonspecifically promoted production of TNFα, interferon α, IL-6, and the like in addition to interferon λ (IL28B)"
